The values that follow come from ChEMBL document CHEMBL1201862, “PubChem BioAssay data set” (2004).

Molecules are shown by their SMILES. The source made the active and inactive calls.

For test [1], the target named is T1, Histone-lysine N-methyltransferase NSD2 (Homo sapiens, UniProt O96028).
T1 sequence (O96028 whole entry): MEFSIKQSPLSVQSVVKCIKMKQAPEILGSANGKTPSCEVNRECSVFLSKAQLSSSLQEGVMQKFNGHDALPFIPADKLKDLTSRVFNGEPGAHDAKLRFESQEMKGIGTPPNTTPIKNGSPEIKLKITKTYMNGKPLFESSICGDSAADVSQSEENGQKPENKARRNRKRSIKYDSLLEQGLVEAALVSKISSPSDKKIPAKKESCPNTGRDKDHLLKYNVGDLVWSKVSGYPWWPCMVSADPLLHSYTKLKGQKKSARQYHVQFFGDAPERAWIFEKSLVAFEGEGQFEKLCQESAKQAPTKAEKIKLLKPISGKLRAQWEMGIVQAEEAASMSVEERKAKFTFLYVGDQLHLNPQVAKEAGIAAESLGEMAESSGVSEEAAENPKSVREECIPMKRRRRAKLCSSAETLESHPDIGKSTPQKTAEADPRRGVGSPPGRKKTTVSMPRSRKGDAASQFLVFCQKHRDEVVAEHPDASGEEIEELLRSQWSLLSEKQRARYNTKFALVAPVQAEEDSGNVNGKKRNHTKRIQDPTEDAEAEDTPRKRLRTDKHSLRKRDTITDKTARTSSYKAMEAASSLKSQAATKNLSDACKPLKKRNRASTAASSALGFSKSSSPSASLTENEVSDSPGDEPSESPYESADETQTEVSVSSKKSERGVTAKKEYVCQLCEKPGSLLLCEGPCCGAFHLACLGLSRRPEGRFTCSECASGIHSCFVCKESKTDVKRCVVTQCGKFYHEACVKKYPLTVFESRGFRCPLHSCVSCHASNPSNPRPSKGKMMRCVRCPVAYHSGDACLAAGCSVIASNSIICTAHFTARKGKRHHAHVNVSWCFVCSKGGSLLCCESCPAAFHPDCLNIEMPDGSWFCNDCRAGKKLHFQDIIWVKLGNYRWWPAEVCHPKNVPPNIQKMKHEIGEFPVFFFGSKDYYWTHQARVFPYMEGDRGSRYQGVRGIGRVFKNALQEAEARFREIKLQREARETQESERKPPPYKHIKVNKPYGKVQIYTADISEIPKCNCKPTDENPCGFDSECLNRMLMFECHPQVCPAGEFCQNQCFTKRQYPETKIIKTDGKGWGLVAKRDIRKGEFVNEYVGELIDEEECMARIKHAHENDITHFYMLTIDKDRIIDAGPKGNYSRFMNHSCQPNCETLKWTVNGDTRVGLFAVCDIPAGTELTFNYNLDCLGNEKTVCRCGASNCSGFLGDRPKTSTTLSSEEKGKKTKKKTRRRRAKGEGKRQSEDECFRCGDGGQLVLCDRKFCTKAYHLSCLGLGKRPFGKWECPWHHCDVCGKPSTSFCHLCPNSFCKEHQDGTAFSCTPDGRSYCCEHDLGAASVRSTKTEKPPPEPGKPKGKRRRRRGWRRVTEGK
Type of test: biochemical.

The target in test [2] is T2, 1-phosphatidylinositol 4,5-bisphosphate phosphodiesterase gamma-1 (Homo sapiens, UniProt P19174).
T2 sequence (P19174 whole entry): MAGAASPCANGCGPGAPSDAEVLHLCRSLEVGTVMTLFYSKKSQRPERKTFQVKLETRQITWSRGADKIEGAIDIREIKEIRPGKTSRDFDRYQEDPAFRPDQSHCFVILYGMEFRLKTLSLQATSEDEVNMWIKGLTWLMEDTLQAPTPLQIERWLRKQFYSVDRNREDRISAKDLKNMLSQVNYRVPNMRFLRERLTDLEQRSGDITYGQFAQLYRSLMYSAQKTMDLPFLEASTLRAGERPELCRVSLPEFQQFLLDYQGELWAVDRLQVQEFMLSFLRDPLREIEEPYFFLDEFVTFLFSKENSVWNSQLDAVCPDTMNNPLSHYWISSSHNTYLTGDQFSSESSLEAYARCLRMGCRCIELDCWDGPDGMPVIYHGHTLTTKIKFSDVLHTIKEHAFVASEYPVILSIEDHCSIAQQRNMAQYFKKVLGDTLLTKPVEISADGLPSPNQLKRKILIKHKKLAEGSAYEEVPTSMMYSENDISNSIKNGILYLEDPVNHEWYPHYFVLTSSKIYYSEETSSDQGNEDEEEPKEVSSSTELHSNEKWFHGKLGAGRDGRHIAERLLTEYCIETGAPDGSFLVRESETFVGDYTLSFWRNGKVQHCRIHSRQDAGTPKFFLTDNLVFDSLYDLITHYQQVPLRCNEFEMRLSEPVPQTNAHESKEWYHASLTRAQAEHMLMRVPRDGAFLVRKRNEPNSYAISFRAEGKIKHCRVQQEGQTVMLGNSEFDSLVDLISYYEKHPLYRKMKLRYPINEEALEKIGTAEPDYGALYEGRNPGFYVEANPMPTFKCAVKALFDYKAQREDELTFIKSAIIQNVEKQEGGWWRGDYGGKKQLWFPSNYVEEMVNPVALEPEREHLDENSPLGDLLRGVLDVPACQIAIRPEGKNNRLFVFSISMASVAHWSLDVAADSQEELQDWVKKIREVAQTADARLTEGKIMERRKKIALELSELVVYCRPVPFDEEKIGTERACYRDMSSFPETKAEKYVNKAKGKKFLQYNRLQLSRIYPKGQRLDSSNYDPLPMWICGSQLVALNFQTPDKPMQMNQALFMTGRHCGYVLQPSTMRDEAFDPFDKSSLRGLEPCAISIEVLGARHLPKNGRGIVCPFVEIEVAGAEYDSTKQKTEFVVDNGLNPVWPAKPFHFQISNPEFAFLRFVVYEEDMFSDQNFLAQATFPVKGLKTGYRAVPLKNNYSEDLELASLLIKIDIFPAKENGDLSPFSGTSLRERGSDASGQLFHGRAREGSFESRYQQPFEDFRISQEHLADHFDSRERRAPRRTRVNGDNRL
Description: Counterscreen for inhibitors of phospholipase C isozymes (PLC-B3): Fluorescence-based biochemical high throughput dose response assay to identify inhibitors of phospholipase C isozymes (PLC-gamma1). A general note: Counterscreens check selectivity or assay interference.

The AC50 is the midpoint of the concentration-response curve, whichever way the signal moves. Take `COC(=O)c1ccc(-c2ccc(C(c3c(C)[nH][nH]c3=O)c3c(C)[nH][nH]c3=O)o2)cc1`: the AC50 in test [1] is 17.8 µM (active).
A word on the IC50: it is the point on the concentration scale where inhibition reaches its midpoint. For `Oc1ccc(/C=N/NC(=S)Nc2cccnc2)c(O)c1O`, the IC50 in test [2] is > 122 µM (inactive).
